According to patent US10254297B2, “Assay for methoxetamine” (Randox Laboratories Ltd, priority 2015, dated 2019):
In brackets after ≈: the same amount, converted by molar mass.

System: antibody raised against Immunogen 2 (Example 9), Tracer 1
Assay: Competitive assay (ELISA) for cross-reactivity measurement
Format: binding, sheep
Settings: for CCR (competitive cross reactivity): Table 1, antibodies raised against Immunogen 2, Tracer 1, relative to methoxetamine = 100%, summarised from FIGS. 5 to 7; for Antibody binding, in words: Table 1 and FIGS. 5 to 7, antibody of the invention; for IC50 used in % CCR calculation: standard concentration giving 50% inhibition of maximal signal
[1] = FIG. 5 (antibody derived from sheep 1)

Compound: CCOC(=O)C1(c2ccccc2)CCC=CC1N(C)C (stereo not drawn) [Tilidine]
- CCR (competitive cross reactivity): <5.00%

Compound: NC1(c2ccccc2Cl)CCCCC1=O (stereo not drawn) [Norketamine]
- CCR (competitive cross reactivity): <5.00%

Compound: c1ccc(C2(N3CCCCC3)CCCCC2)cc1 [Phencyclidine]
- CCR (competitive cross reactivity): <5.00%
- Antibody binding, in words: does not bind

Compound: COc1cccc(C2(N)CCCCC2=O)c1 (stereo not drawn) [N-desethylmethoxetamine, 2-amino-2-(3-methoxyphenyl)cyclohexanone]
- % CCR (compared to methoxetamine) (FIG. 5 (antibody derived from sheep 1), IC50 methoxetamine / IC50 analyte x 100): 24%
- IC50 used in % CCR calculation [1]: 1.96 ng/mL (≈ 8.94 nM)
- CCR (competitive cross reactivity): >5.00%
- Antibody binding, in words: substantial binding

Compound: CCNC1(c2cccc(OC)c2)CCCCC1=O (stereo not drawn) [Methoxetamine, 2-(3-methoxyphenyl)-2-(ethylamino)cyclohexanone]
- IC50 used in % CCR calculation [1]: 0.47 ng/mL (≈ 1.9 nM)
- CCR (competitive cross reactivity): 100.00%
- Antibody binding, in words: high affinity

Compound: CNC1(c2ccccc2Cl)CCCCC1=O (stereo not drawn) [Ketamine]
- CCR (competitive cross reactivity): <5.00%
- Antibody binding, in words: does not bind

Compound: COc1cccc(C2(O)CCCCC2CN(C)C)c1 (stereo not drawn) [Tramadol]
- CCR (competitive cross reactivity): <5.00%
- Antibody binding, in words: does not bind
